Melting point and IC50 data for 3 compounds are collected here from patent publication US20110082166A1, “NOVEL 4-BENZHYDRYL-TETRAHYDRO-PYRIDINE DERIVATIVES AND THEIR USE AS MONOAMINE NEUROTRANSMITTER RE-UPTAKE INHIBITORS” (NEUROSEARCH A/S, priority 2008, published 2011).

Data set [1] concerns the target T1, reuptake of dopamine (DA) in synaptosomes (Rattus norvegicus, UniProt P23977).
T1 construct: in synaptosomes as described in WO 97/16451 (NeuroSearch A/S); from tissue
Nature of the data set: In vitro inhibition of DA reuptake in synaptosomes. The data set is classed as biochemical.

Data set [2] deals with T2, reuptake of noradrenaline (NA) in synaptosomes (Rattus norvegicus, UniProt Q63380).
T2 construct: in synaptosomes as described in WO 97/16451 (NeuroSearch A/S); from tissue
T2 sequence (Q63380 1-617): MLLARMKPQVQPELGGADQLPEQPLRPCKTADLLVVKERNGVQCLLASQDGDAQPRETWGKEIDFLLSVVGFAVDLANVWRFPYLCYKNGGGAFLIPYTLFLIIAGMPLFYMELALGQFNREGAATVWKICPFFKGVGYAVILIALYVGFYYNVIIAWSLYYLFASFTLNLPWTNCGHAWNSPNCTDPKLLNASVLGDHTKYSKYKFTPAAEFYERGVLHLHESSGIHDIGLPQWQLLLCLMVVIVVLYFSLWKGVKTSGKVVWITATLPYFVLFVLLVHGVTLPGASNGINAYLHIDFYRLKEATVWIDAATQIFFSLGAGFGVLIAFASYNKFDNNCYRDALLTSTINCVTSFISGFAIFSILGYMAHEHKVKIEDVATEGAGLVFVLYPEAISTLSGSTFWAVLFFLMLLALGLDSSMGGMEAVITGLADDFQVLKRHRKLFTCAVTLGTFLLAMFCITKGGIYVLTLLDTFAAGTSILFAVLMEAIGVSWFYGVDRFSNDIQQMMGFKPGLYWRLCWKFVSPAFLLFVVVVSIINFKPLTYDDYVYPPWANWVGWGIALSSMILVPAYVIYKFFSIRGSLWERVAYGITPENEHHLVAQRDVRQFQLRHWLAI
As to the kind of experiment: In vitro inhibition of NA reuptake in synaptosomes. The data set is classed as biochemical.

For data set [3], the target named is T3, reuptake of serotonine (5-HT) in synaptosomes (Rattus norvegicus, UniProt P31652).
T3 construct: in synaptosomes as described in WO 97/16451 (NeuroSearch A/S); from tissue
T3 sequence (P31652 whole entry): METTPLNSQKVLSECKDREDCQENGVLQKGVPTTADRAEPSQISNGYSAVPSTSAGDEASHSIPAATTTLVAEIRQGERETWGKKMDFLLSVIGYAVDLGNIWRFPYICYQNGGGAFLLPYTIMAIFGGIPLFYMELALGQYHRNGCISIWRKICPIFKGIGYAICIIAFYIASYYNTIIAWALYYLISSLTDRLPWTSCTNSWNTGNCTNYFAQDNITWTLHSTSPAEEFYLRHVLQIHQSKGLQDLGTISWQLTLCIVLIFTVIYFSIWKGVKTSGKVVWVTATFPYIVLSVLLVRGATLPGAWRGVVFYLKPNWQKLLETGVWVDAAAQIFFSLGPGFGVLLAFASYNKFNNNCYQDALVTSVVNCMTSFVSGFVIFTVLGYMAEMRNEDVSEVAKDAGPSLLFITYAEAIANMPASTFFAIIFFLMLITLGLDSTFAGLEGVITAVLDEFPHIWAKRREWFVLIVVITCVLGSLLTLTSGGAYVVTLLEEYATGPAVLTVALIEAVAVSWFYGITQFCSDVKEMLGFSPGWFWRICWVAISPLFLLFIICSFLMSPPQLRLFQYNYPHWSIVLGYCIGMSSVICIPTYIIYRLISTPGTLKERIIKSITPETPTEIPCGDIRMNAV
Nature of the data set: In vitro inhibition of 5-HT reuptake in synaptosomes. The data set is classed as biochemical. Here is the method: Compounds were tested for their ability to inhibit the reuptake of the monoamine neurotransmitters dopamine (DA) noradrenaline (NA) and serotonine (5-HT) in synaptosomes as described in WO 97/16451 (NeuroSearch A/S).
The test values are given as IC50 (the concentration (μM) of the test substance which inhibits the specific binding of ^3H-DA, ^3H-NA, or ^3H-5-HT by 50%).

The structures appear in SMILES notation. Where a name gives a salt, the structure may show the parent alone. Read-outs that look alike come from different tables or passages of the source.

T1 sequence (P23977 whole entry): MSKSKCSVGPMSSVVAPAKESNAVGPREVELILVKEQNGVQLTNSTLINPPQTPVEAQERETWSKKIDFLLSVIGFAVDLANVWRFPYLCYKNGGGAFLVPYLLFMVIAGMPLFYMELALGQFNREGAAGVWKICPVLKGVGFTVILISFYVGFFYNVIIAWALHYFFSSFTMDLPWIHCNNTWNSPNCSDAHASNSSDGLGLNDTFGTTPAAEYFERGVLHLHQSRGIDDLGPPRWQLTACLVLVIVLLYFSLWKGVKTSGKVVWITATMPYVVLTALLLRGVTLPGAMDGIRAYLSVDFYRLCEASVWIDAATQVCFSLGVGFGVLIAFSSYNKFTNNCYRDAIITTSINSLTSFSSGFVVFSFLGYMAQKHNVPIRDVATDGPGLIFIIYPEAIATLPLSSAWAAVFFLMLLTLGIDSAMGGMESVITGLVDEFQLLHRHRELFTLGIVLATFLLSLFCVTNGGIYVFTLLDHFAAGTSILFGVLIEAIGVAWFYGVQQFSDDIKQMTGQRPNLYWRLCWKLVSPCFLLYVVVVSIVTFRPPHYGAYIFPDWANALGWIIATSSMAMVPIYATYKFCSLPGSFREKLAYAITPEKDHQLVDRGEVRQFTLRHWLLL

For the compound `CN1CC=C(C(c2ccccc2)c2ccccc2)CC1` (as salt: fumaric acid salt) [4-Benzhydryl-1-methyl-1,2,3,6-tetrahydro-pyridine], the melting point is 177.6 to 179.2 °C.
Regarding `C1=C(C(c2ccccc2)c2ccccc2)CCNC1` [4-Benzhydryl-1,2,3,6-tetrahydro-pyridine], the results for the IC50 in data set [1], in data set [2] and in data set [3] were 63 nM, 45 nM and 3.5 nM, respectively.
Regarding `CN1CC=C(C(c2ccccc2)c2ccccc2)CC1` [4-Benzhydryl-1-methyl-1,2,3,6-tetrahydro-pyridine], the concentration for half-maximal inhibition (IC50) in data set [1] (synaptosomes, 3H-DA, read-out: DA-uptake IC50) was 580 nM; in data set [2] (synaptosomes, 3H-NA, read-out: NA-uptake IC50), 600 nM; in data set [3] (synaptosomes, 3H-5-HT, read-out: 5-HT-uptake IC50), more than 1000 nM.

By melting point is commonly meant the temperature of the solid-liquid transition. What is called IC50 is the concentration that inhibits the measured activity by half.
